Measurements from US20120329837A1, “CATHEPSIN INHIBITORS FOR TREATING MICROGLIA-MEDIATED NEURON LOSS IN THE CENTRAL NERVOUS SYSTEM” (ViroBay, Inc., priority 2011, published 2012).

Each compound was assayed against T1, Human cathepsin S (Homo sapiens, UniProt P25774) (assay: Cathepsin S Assay (Z-Val-Val-Arg-AMC hydrolysis)). Conditions: Table 2; Enzyme CatS.
T1 sequence (P25774 115-331): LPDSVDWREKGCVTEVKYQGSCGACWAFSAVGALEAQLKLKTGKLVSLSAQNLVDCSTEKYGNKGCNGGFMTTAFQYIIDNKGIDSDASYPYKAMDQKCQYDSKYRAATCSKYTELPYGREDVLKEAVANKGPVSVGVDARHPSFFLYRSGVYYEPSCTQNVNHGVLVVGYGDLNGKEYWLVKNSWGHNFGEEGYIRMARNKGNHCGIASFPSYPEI
Type: biochemical
With `N#CC1(NC(=O)[C@H](CC(F)(F)CC2CC2)N[C@@H](c2ccccc2)C(F)(F)F)CC1` the IC50 was < 0.01 µM.
With `COc1ccc([C@H](N[C@@H](CC(F)(F)CC2CC2)C(=O)NC2(C#N)CC2)C(F)(F)F)cc1` the IC50 was < 0.01 µM.
In the case of `N#CC1(NC(=O)[C@H](CC(F)(F)CC2CC2)N[C@@H](c2ccc(F)c(F)c2)C(F)(F)F)CC1`, the IC50 is reported as < 0.01 µM.
`N#CC1(NC(=O)[C@H](CC(F)(F)CC2CC2)N[C@@H](c2ccc(C(F)(F)F)cc2)C(F)(F)F)CC1` was tested, and the IC50 was < 0.01 µM.

The compounds below were run against T1, Human cathepsin S (assay: Cathepsin S Assay (Z-Val-Val-Arg-AMC hydrolysis)). Conditions: Table 1.
Type: biochemical
Procedure: Solutions of test compounds in varying concentrations were prepared in 10 μL of dimethyl sulfoxide (DMSO) and then diluted into assay buffer (40 μL, comprising: MES, 50 mM (pH 6.5); EDTA, 2.5 mM; and NaCl, 100 mM); β-mercaptoethanol, 2.5 mM; and BSA, […]. Human cathepsin S (0.05 pMoles in 25 μL of assay buffer) was added to the dilutions. The assay solutions were mixed for 5-10 seconds on a shaker plate, covered and incubated for 30 min at room temperature. Z-Val-Val-Arg-AMC (4 nMoles in 25 μL of assay buffer containing 10% DMSO) was added to the assay solutions and hydrolysis was followed spectrophotometrically (at λ 460 nm) for 5 min. Apparent inhibition constants (Ki) were calculated from the enzyme progress curves using standard mathematical models.
In the case of `CCC(F)(F)C[C@H](N[C@@H](c1ccc(F)cc1)C(F)(F)F)C(=O)NC1(C#N)CC1` [drawing 30], the Ki is reported as < 0.01 µM.
With `CC(C)CC(F)(F)C[C@H](N[C@@H](c1ccc(F)cc1)C(F)(F)F)C(=O)NC1(C#N)CC1` [drawing 31] the Ki was < 0.01 µM.
With `CCCC(F)(F)C[C@H](N[C@@H](c1ccc(F)cc1)C(F)(F)F)C(=O)NC1(C#N)CC1` [drawing 32] the Ki was < 0.01 µM.
For `CCCCC(F)(F)C[C@H](N[C@@H](c1ccc(F)cc1)C(F)(F)F)C(=O)NC1(C#N)CC1` [drawing 33], the Ki was < 0.01 µM.

Same assay, conditions: Table 3
For `N#CC1(NC(=O)[C@H](CC(F)(F)Cc2ccccc2)N[C@@H](c2ccc(F)cc2)C(F)(F)F)CC1`, the Ki was < 0.02 µM.
`N#CC1(NC(=O)[C@H](CC(F)(F)c2ccccc2)N[C@@H](c2ccc(F)cc2)C(F)(F)F)CC1` was tested, and the Ki was < 0.02 µM.
In the case of `N#CC1(NC(=O)[C@H](CC(F)(F)CC2CC2)N[C@@H](c2ccc(F)cc2)C(F)(F)F)CC1`, the Ki is reported as < 0.02 µM.
For `CCC(F)(F)CC[C@H](N[C@@H](c1ccc(F)cc1)C(F)(F)F)C(=O)NC1(C#N)CC1`, the Ki was < 0.02 µM.
With `CC(C)CC(F)(F)C[C@H](N[C@@H](c1ccc(F)cc1)C(F)(F)F)C(=O)NC1(C#N)CC1` [drawing 40] the Ki was < 0.02 µM.
For `CCC(F)(F)C[C@H](N[C@@H](c1ccc(F)cc1)C(F)(F)F)C(=O)NC1(C#N)CC1` [drawing 42], the Ki was < 0.02 µM.
In the case of `CCCC(F)(F)C[C@H](N[C@@H](c1ccc(F)cc1)C(F)(F)F)C(=O)NC1(C#N)CC1` [drawing 43], the Ki is reported as < 0.02 µM.
In the case of `CCCCC(F)(F)C[C@H](N[C@@H](c1ccc(F)cc1)C(F)(F)F)C(=O)NC1(C#N)CC1` [drawing 44], the Ki is reported as < 0.02 µM.

Same assay, conditions: text statement for drawn compounds
In the case of `CC(C)CS(=O)(=O)C[C@H](N[C@@H](c1ccc(F)cc1)C(F)(F)F)C(=O)NC1(C#N)CC1`, the Ki is reported as < 0.01 µM.
